From patent publication US20230257429A1, “PEPTIDE ADJUVANT FOR ITS THERAPEUTIC APPLICATIONS IN VIRAL AND TUMOUR VACCINE DEVELOPMENT AND CANCER IMMUNOTHERAPY AND AUTOIMMUNE DISEASE DIAGNOSIS AND TREATMENTS” (National University of Singapore, priority 2020, published 2023)
“Also recorded” adds a separate entry of the source.

Key:
PBMC [1] = test: PBMC activation, TNFα and IL-1β ELISA; assay type: cell-based, human; conditions: for adjuvant (alarmin) activity compared with NCL-P2+G / adjuvant (alarmin) activity compared with NCL-P2: PBMC stimulated 24 hr; for adjuvant (alarmin) activity compared with NCL-P2+G: TNFα by ELISA; for adjuvant (alarmin) activity compared with NCL-P2: TNFα in media; for TNFα induction from PBMC by known CPPs / TNFα production from PBMC: 24 hr; for TNFα induction from PBMC by known CPPs: ELISA; for TNFα production from PBMC: recombinant protein coated on plates
Protocol: (§1) Buffy coat fractions were obtained from healthy blood donors at the Singapore Health Sciences Authority, with Institutional ethics approval, and PBMC were isolated using Ficoll-Paque (GE Healthcare). To isolate monocytes, PBMC were re-suspended to 1×10^7 cells/ml in the RPMI medium contained 5% (v/v) BCS and incubated for 1 hr in T75 flasks (20 ml/flask). Monocytes that adhered were harvested. To culture macrophages and DC [Cao, W., et al., Blood 107: 2777-2785, (2006), incorporated herein by reference], monocytes were resuspended to 1×10^6 cells/ml and cultured in 6-well plates (2 ml/well). Macrophages were cultured by adding M-CSF to 20 ng/ml and DC were cultured with 20 ng/ml GM-CSF and 40 ng/ml IL-4. M-CSF, GM-CSF and IL-4 were obtained from R&D Systems (Mineapolis, Minn.). Cells were cultured for 6 days with half of the media being replenished every two days.
Purified proteins in PBS (30 μg/ml) were coated in triplicates in 96-well plates (50 μl/well) for 12 hr and PBMC (3×10^6 cells/ml), monocytes (1×10^6 cells/ml), macrophages (0.5×10^6 cells/ml) or DC (0.5×10^6 cells/ml) were re-suspended in macrophage serum-free medium containing penicillin and streptomycin and cultured for 24 hr in these plates at 100 μl/well. Where TLR ligands were used to stimulate these cells, they were added to the media: LPS (500 ng/ml for DC and macrophages and 10 ng/ml for PMBC and monocytes, InvivoGen), flagellin (1 μg/ml, InvivoGen), lipoteichic acid (LTA, 10 μg/ml). Cell activation was determined by measuring TNFα and IL-1β in the culture media using ELISA kits (Invitrogen).

PBMC [2] = test: Peptide binding to and penetration of PBMC, flow cytometry; assay type: cell-based, human; conditions: for CPP activity compared with P2+G / CPP activity compared with NCL-P2: PBMC; for CPP activity compared with P2+G: 1 hr at 4° C. and 37° C., MFI; for CPP activity compared with NCL-P2: peptide 200 μg/ml; for CPP activity compared with NCL-P2 / intracellular pool / cell penetration (CPP activity) in PBMC: 1 hr at 4° C.; for intracellular pool / cell penetration (CPP activity) in PBMC: fixed/permeabilized, streptavidin-AF488
Protocol: PBMC re-suspended in 100 μl macrophage serum free media (3×10^6/ml) were incubated with different peptides (200 μg/ml). PBMC (100 μl) were incubated with the peptides for 1 hr at 37° C. or 4° C. Cells were washed twice in 2% FBS/PBS and incubated with streptavidin-AF488 and Zombie (NIR) Fixable viability stain-APC-Cy7 for 30 min at 4° C. Cells were then fixed with 1% PFA for 30 min at room temperature and analysed using the Fortessa analyser (BD). In some experiments, PBMC were, after incubation with peptides, incubated with Zombie (NIR) Fixable viability stain (APC-Cy7) for 30 min at 4° C. Cells were then fixed and permeabilized with BD CYTOFIX/CYTOPERM™ Kit for 20 min at 4° C., and then incubated with streptavidin-AF488 for 30 min at 4° C. In some experiments, PBMC were, after incubation with the peptides, stained with fluorescent mouse antibodies specific for monocytes (CD14/BV711), T cells (CD3/PerCP-Cy5-5) and B cells (CD19/Pacific blue). Cells were then stained with Zombie (NIR) Fixable viability stain-APC-Cy7 and streptavin-AF488, with or without membrane permeabilization. In these experiments, monocytes, T cells and B cells were separately gated to detect surface peptide binding and intracellular peptide penetration.

TLR2 = TLR2 (Homo sapiens, UniProt O60603); test: TLR2 binding assay (ELISA plate); design: purchased R&D Systems; conditions: for soluble protein binding to coated TLR2: TLR2 coated 2 μg/ml, protein 0-20 μg/ml, anti-HA detection; for TLR2 binding at the highest concentration tested: peptide 200 μg/ml
monocytes = test: Monocyte activation, TNFα and IL-1β ELISA; assay type: cell-based, human; conditions: protein coated on plates, 24 hr, ELISA
Protocol: as §1
[…] Where TLR ligands were used to stimulate these cells, they were added to the media: LPS (500 ng/ml for DC and macrophages and 10 ng/ml for PMBC and monocytes, InvivoGen), flagellin (1 μg/ml, InvivoGen), lipoteichic acid (LTA, 10 μg/ml). Cell activation was determined by measuring TNFα and IL-1β in the culture media using ELISA kits (Invitrogen).

Chain of TLR2 (O60603 21-590 limits assumed): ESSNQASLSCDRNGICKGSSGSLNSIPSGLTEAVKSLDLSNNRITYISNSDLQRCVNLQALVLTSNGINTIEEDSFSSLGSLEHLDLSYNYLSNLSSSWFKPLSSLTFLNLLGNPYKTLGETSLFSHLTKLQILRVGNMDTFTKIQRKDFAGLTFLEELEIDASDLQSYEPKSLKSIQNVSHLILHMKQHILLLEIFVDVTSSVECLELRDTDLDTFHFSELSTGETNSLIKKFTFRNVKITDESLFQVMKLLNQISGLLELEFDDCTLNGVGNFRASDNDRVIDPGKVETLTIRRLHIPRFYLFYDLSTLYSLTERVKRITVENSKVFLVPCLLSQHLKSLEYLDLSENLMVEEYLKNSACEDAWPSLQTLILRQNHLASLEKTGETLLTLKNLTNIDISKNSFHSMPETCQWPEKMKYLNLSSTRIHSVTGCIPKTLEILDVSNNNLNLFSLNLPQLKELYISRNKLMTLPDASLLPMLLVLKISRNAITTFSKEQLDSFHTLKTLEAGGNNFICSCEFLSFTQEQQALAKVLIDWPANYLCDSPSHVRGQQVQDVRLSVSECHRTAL

GGFGARGGARGARGGFGARGARGGFGARGGFRGARGA (NCL-P2+G(G/A))
adjuvant (alarmin) activity compared with NCL-P2+G (PBMC [1]): lost the alarmin activity
CPP activity compared with P2+G (PBMC [2]): completely lost the CPP activity

GGFGGKGGGKGGKGGFGGKGKGGFGGKGGFKGGKGG (NCL-P2R/K)
adjuvant (alarmin) activity compared with NCL-P2 (PBMC [1]): lost CPP as well as alarmin activity
adjuvant (alarmin) activity compared with NCL-P2 (PBMC [1]; listed as R/K mutant of NCL-P2): lost its adjuvant activity
adjuvant (alarmin) activity compared with NCL-P2 (PBMC [1]; listed as SEQ ID NO: 20): completely abolished its adjuvant activity
CPP activity compared with NCL-P2 (PBMC [2]): lost CPP as well as alarmin activity
PBMC penetration at 37° C. or 4° C. (PBMC [2]; compared with NCL-P2): no longer penetrates PBMC

GGFGGRGGGRGGRGGFGGRGGRGGFGGRGGFGGRGGRGG (NCL-P2+3G)
adjuvant (alarmin) activity compared with NCL-P2+G (PBMC [1]): no further improvement in adjuvant activity and instead it slightly reduced the high adjuvant activity
adjuvant (alarmin) activity compared with NCL-P2 (PBMC [1]): significantly higher alarmin activity
CPP activity compared with NCL-P2 (PBMC [2]): slightly higher CPP activity
CPP activity compared with NCL-P2 (PBMC [2]; listed as P2+3G): slightly increased their CPP activities

GGFGGRGGRGGFGGRGGRGGFGGRGGRGGFGGRGGRGG (NCL-P2+2G)
adjuvant (alarmin) activity compared with NCL-P2 (PBMC [1]): diminished rather than increased adjuvant activity; also recorded: slightly reduced alarmin activity

GGFGPRGGPRGPRGGFGPRGPRGGFGPRGGFRGPRGP (NCL-P2+G(G/P))
adjuvant (alarmin) activity compared with NCL-P2+G (PBMC [1]): lost the alarmin activity
CPP activity compared with P2+G (PBMC [2]): completely lost the CPP activity

GGIGGRGGGRGGRGGIGGRGGRGGIGGRGGIRGGRGG (NCL-P2+G(F/I))
adjuvant (alarmin) activity compared with NCL-P2+G (PBMC [1]): retained the alarmin activity
CPP activity compared with P2+G (PBMC [2]): acquired higher CPP activities
CPP activity compared with NCL-P2 (PBMC [2]): slightly increased their CPP activities

GGLGGRGGGRGGRGGLGGRGGRGGLGGRGGLRGGRGG (GGLGRRGGGRGGRGGLGGRGGRGGLGGRGGLRGGRGG; NCL-P2+G(F/L))
adjuvant (alarmin) activity compared with NCL-P2+G (PBMC [1]): stronger alarmin activity than P2+G; also recorded: retained the alarmin activity
CPP activity compared with P2+G (PBMC [2]): acquired higher CPP activities
CPP activity compared with NCL-P2 (PBMC [2]): slightly increased their CPP activities

GGRGGRGGGRGGRGGRGGRGRGGRGGRGGRRGGRGG (NCL-P2F/R)
adjuvant (alarmin) activity compared with NCL-P2 (PBMC [1]): losing significant alarmin activity; also recorded: no significant alarmin activity
adjuvant (alarmin) activity compared with NCL-P2 (PBMC [1]; listed as P2F/R): reduced alarmin activity; also recorded: diminished alarmin activities
adjuvant (alarmin) activity compared with NCL-P2 (PBMC [1]; listed as SEQ ID NO: 21): substantially reduced its adjuvant activity
increase in CPP activity compared with NCL-P2 (PBMC [2]): approx. 8 fold
CPP activity compared with NCL-P2 (PBMC [2]): gained substantial CPP activity; also recorded: have cell-penetrating activity
CPP activity compared with NCL-P2 (PBMC [2]; listed as P2F/R): strong CPP

GGWGGRGGGRGGRGGWGGRGRGGWGGRGGWRGGRGG (NCL-P2F/W)
adjuvant (alarmin) activity compared with NCL-P2 (PBMC [1]): lost the alarmin activity; also recorded: no significant alarmin activity
adjuvant (alarmin) activity compared with NCL-P2 (PBMC [1]; listed as SEQ ID NO: 24): markedly diminished its adjuvant activity
CPP activity compared with NCL-P2 (PBMC [2]): retained the CPP activity; also recorded: have cell-penetrating activity

GGYGGRGGGRGGRGGYGGRGRGGYGGRGGYRGGRGG (NCL-P2F/Y)
adjuvant (alarmin) activity compared with NCL-P2 (PBMC [1]): alarmin activity was diminished; also recorded: no significant alarmin activity
adjuvant (alarmin) activity compared with NCL-P2 (PBMC [1]; listed as SEQ ID NO: 23): markedly diminished its adjuvant activity
CPP activity compared with NCL-P2 (PBMC [2]): gained significant CPP activity; also recorded: have cell-penetrating activity

GWTLNSAGYLLGKINLKALAALAKKIL [CPP6, reference compound]
TNFα induction from PBMC by known CPPs (PBMC [1]): No significant TNFα

MVTVLFRRLRIRRACGPPRVRV (CPP7) [reference compound]
TNFα induction from PBMC by known CPPs (PBMC [1]): No significant TNFα

NCL(522)-HA: NCL-HA C-terminal deletion mutant of 522 residues which lacks the GAR/RGG region
soluble protein binding to coated TLR2 (TLR2): not observed

NCL(649)-HA: NCL-HA C-terminal deletion mutant which lacks the GAR/RGG region
soluble protein binding to coated TLR2 (TLR2): not observed
His-tagged TLR2 binding to coated protein (TLR2; protein coated 10 μg/ml, TLR2 0.375-6.0 μg/ml): no binding

NCL(670)-HA: NCL-HA C-terminal deletion mutant of 670 residues with a residual GAR/RGG region
TNFα and IL-1β production from monocytes (monocytes): no longer stimulates monocytes; also recorded: apparently insufficient
TLR2 binding to coated NCL-HA mutants (summary experiment) (TLR2; protein coated 10 μg/ml, TLR2 2 μg/ml): weak binding

NCL-P4: peptide representing the N-terminal half of NCL-P6 (RGGFGGRGGG; NCL-P4)
intracellular pool / cell penetration (CPP activity) in PBMC (PBMC [2]): all lacked cell penetration
TLR2 binding at the highest concentration tested (TLR2): no TLR2 binding

NCL-P5: peptide representing the C-terminal half of NCL-P6 (RGGRGGFGGRG; NCL-P5)
intracellular pool / cell penetration (CPP activity) in PBMC (PBMC [2]): all lacked cell penetration
TLR2 binding at the highest concentration tested (TLR2): low level of TLR2 binding

NCL-P7: short peptide corresponding to the non-repetitive C-terminal end of the 48-residue GAR/RGG region (FRGGRGG; NCL-P7)
intracellular pool / cell penetration (CPP activity) in PBMC (PBMC [2]): all lacked cell penetration

RRRRNRTRRNRRRVRRRRRNRTRRNRRRVR (2xCPP4) [2×CPP4, reference compound]
alarmin activity compared with CPP4 (PBMC [1]; PBMC 24 hr, TNFα ELISA): Little increase in alarmin activity

B1: FBRL: recombinant fibrillarin with C-terminal HA tag (protein)
chain: MKPGFSPRGGGFGGRGGFGDRGGRGGRGGFGGGRGRGGGFRGRGRGGGGGGGGGGGGGRGGGGFHSGGNRGRGRGGKRGNQSGKNVMVEPHRHEGVFICRGKEDALVTKNLVPGESVYGEKRVSISEGDDKIEYRAWNPFRSKLAAAILGGVDQIHIKPGAKVLYLGAASGTTVSHVSDIVGPDGLVYAVEFSHRSGRDLINLAKKRTNIIPVIEDARHPHKYRMLIAMVDVIFADVAQPDQTRIVALNAHTFLRNGGHFVISIKANCIDSTASAEAVFASEVKKMQQENMKPQEQLTLEPYERDHAVVVGVYRPPPKVKN
modifications: C-terminal HA tag; FBRL
TNFα production from PBMC (PBMC [1]): strongly induced TNFα production

B2: GAR1-HA: recombinant GAR1 with a C-terminal HA tag (protein, UniProt Q9NY12 1-217, looked up)
H/ACA ribonucleoprotein …: MSFRGGGRGGFNRGGGGGGFNRGGSSNHFRGGGGGGGGGNFRGGGRGGFGRGGGRGGFNKGQDQGPPERVVLLGEFLHPCEDDIVCKCTTDENKVPYFNAPVYLENKEQIGKVDEIFGQLRDFYFSVKLSENMKASSFKKLQKFYIDPYKLLPLQRFLPRPPGEKGPPRGGGRGGRGGGRGGGGRGGGRGGGFRGGRGGGGGGFRGGRGGGFRGRGH
modifications: C-terminal HA tag
TNFα production from PBMC (PBMC [1]): indeed activated PBMC
